What was measured:
Type in all cases: cell-based, human
AC133+ cells = test: RT-PCR of CD38 and HOX genes in AC133+ cells
Description: Total RNA was extracted from cultured human cells using the Rneasy mini kit (Quiagen) and following the manufacturer's instructions. 3 μg of RNA was used in subsequent reverse transcription reactions. The RNA was mixed with a poly T15 oligo to 5 microgrammes/ml and heated to 75° C. for 5 minutes. After cooling on ice, the following additional reagents were added; dNTPs to 0.4 mM, RNase OUT (Promega) to 1.6 U/μl, Moloney Murine Leukemia Virus Reverse Transcriptase (M-MLRvT) RnaseH— point mutant (Promega) to 8 U/μl and the appropriate buffer (supplied by the manufacturer) to x1 concentration. The mixture was incubated for one hour at 37° C., heated to 70° C. for two minutes and cooled on ice.
PCR reactions were all performed in a total volume of 40 μl. For each we used 1 μl of the M-MLRvT reaction (as described above), 0.2 nmols of each primer and 20 microliters of Redimix pre-mixed PCR components (Sigma). All reactions were cycled at 94° C. for 30 seconds, 55° C. for 30 seconds and 72° C. for 60 seconds. 30 cycles were used for all primer sets except those for beta-actin, for which 23 cycles were used.

CD133+ cells [1] = test: RT-PCR of HOX-PBX target genes in CD133+ cells
Description: Total RNA was isolated from liquid nitrogen snap-frozen cells using RNeasy Mini Kit protocol (Qiagen, Crawley, UK). 50 μl reverse transcription reactions using 1 μg of RNA per reaction heated at 75° C. cDNA with 1 μg of oligo-dT for 10 mins. Samples were cooled on ice and mixed with 200 units of M-MLV reverse transcriptase (Promega, Southampton, UK) in its associated buffer, 400 μM of dNTPs (Promega), and 40 units of RNAseout (Invitrogen, Paisley, UK). Samples were then incubated at 37° C. for one hour and finally heated at 75° C. for 5 mins. PCR reactions (35 cycles, 94° C. 30 sec, 55° C. 30 sec, 72° C. 1 min) were carried out in a 20 μl reaction using JumpStart ReadyMix REDTaq DNA polymerase (Sigma-Aldrich) using an identical amount of cDNA per reaction with 1 μM of forward and reverse primers.

[2] = tested on: PBX1, 2 and 3 association with HOX proteins; test: Cross-linking and Western blot of PBX proteins in KG1a cells (Example 2); conditions: 24 hours, 1 μM peptide, EDC cross-linking
Description: HXP and control peptides were as described in Example 1. KG1a cells were grown as described in Example 1. KG1a cells were cultured for 24 hours without treatment, or in the presence of 1 μM HXP peptide or control peptide. The cells were harvested and lysed. One aliquot of the cells was subject to cross-linking. Frozen cells were lysed using standard techniques and […] of lysate was incubated for 30 minutes at room temperature in 4 mM 1-ethyl-3-[3-(dimethyl-amino)propyl]carbodimide (EDC), 4 mM sulpho-NHS, 20 mM HEPES (pH 7.5), 5 mM MgCl2, and 0.03% (w/v) […] to cross-link non-covalently associated proteins. The reaction was stopped by the addition of ammonium acetate to a final concentration of 50 mM. The other aliquot was frozen without cross-linking.
Proteins were extracted from the cells of both aliquots by standard techniques and separated by gel electrophoresis. The gels were probed by Western blot with an antibody raised against PBX1, 2 and 3 (sc-888, Santa Cruz Inc. USA) or an anti-beta actin antibody (sc-1615, Santa Cruz Inc. USA).

CD133+ cells [3] = test: CD133+ cell proliferation in cytokine supplemented liquid culture over 18 days
Description: CD133+ cells (another name for AC133+ cells) were seeded in duplicate at 4×10^4 cells/ml in IMDM (Life Technologies), 10% FCS (Sigma Aldrich) and gentamycin (50 μg/ml Life Technologies) and Thrombopoietin (TPO) 10 ng/ml, Flt3-Ligand (FL) 50 ng/ml & c-KitL (K) 20 ng/ml), all obtained from R and D systems Ltd., UK. (Forraz et al., 2002). The HXP peptide (N-term: WYPWMKKHHRQIKIWFQNRRMKWKK: C-term; Eurogentec, Belgium) and control CXP peptide (N-term: WCCLADRHGRQIKIWFQNRRMKWKK: C-term; Eurogentec, Belgium) were added to culture medium at a concentration of 20 μg/ml. To withdraw peptides from culture, cells were washed twice in IMDM or RPMI and reseeded at prewash cell densities. Primary cells were cultured for 3 weeks at 37° C., 5% CO2 in humidified atmosphere and enumerated by a […] exclusion method with a heamocytometer.

[4] = tested on: KG1a, HL60 and U937 cells; test: Cell cycle of leukaemic cell lines synchronised in G0-G1 with L-mimosine; conditions: HL60 and U937 synchronised in G0-G1, over 48 hours, vs control peptide
Description: The proportion of KG1a, HL60 and U937 cells in G0-G1 phase of the cell cycle upon HXP peptide treatment was compared to CXP4. Cells were synchronised in G0-G1 phase of the cell cycle by exposure to 0.5 mM L-mimosine. Results are expressed as the mean percentage of four experiments (+/−SE).
KG1a, HL60 and U937 cell cycle profiles were analysed over 48 hours in culture with HXP peptide or the control peptide (FIG. 10). The effect of HXP peptide on non-synchronised cells varied considerably (data not shown).

WYPWMKKHHRQIKIWFQNRRMKWKK [HXP peptide]
CD38 gene expression (AC133+ cells): up-regulation
HOX B4, B8 and A9 gene expression (AC133+ cells; from as early as day 3): down-regulated
CD38 gene expression (CD133+ cells [1]; 18 days): up-regulated
expression of HOX-PBX target genes (CDC25, CDK2, N-Ras, Ras-like GTP binding protein, MMP19, MMP1, MAPK, RAB27A, Bak2, p53, CTCF, EIF4E, CD133, CD34, TERT, HOX B4, B8 and A9) (CD133+ cells [1]; 18 days): significantly down regulated
expression of HOX-PBX target genes after withdrawing HXP peptide (CD133+ cells [1]; withdrawal at day 7): up-regulation of all of these genes with the exception of MAPK
association of PBX proteins with other proteins (HOX proteins) [2]: none of the PBX isoforms from the HXP peptide treated cells were associated with other proteins
inhibition of CD133+ cell growth compared to CXP peptide-treated cells (CD133+ cells [3]; day 18, 20 μg/ml, average, p<0.001): 3.7 fold
CD133+ cell proliferation after withdrawal of HXP peptide (CD133+ cells [3]; withdrawal at day 7, compared to 18 day-HXP peptide treated cells, p<0.01): resumption of cell proliferation
proportion of cells leaving phase G0-G1 and entering the cell cycle [4]: induces a significantly higher proportion of cells to leave the phase G0-G1 and enter the cell cycle

Source: patent US7728105B2, “Peptides impairing PBX dependent gene regulation” (St. George's Hospital Medical School, priority 2002, dated 2010)
